Key:
BRISC(FL) = biological target: T1, BRISC(FL) (Homo sapiens, UniProt P46736+Q15018+Q9NXR7); experiment: Native mass spectrometry of BRISC with inhibitor; assay type: binding; details: 10 μM BRISC(FL), 1 mM inhibitor
T1 construct: The four-subunit human BRISC (full-length (FL) and MERIT40ΔN, Abraxas2ΔC) complex was cloned; made in house; host or cells: Spodoptera frugiperda (Sf9) insect cells
Description: Samples were buffer exchanged into 500 mM ammonium acetate using Zeba Spin 7K MWCO desalting columns (ThermoFisher). Gold and palladium coated nanospray tips were prepared in-house and mounted on the nano-electrospray ionisation source. Mass spectra were acquired on a Q Exactive Ultra-High Mass Range Hybrid Quadrupole-Orbitrap mass spectrometer (Thermo Fisher), optimised for mass resolution at high m/z ratios. Data were visualised and processed using Mass Lynx (v4.1) and UniDec (v2.7.1).

BRISC BRCC36 Arg167Ala = BRISC BRCC36 Arg167Ala (Homo sapiens, UniProt P46736+Q15018+Q9NXR7, R167A); experiment: IQF DUB assay, BRISC mutant BRCC36 Arg167Ala; assay type: biochemical; details: FIG. 4B
Description: (§1) The four-subunit human BRISC (full-length (FL) and MERIT40ΔN, Abraxas2ΔC) complex was cloned using the MultiBac system and co-expressed in Spodoptera frugiperda (Sf9) insect cells^32. BRISC mutants were cloned into pFastBac vectors in the Bac-to-Bac system (ThermoFisher), baculoviruses generated in Sf9 cells and used for co-infection of Trichoplusia ni (Tni) cells. All BRISC complexes were purified as previously described^12,13.
(§2) BRISC complexes were tested for activity in DUB reaction buffer containing 50 mM HEPES-NaOH pH 7.0, 100 mM NaCl, 0.1 mg/mL BSA, 1 mM DTT, and 0.003% Brij-35. […] Inhibitors were assayed at concentrations up to 200 μM. […] DUB activity was measured using internally quenched fluorescent (IQF) K63-linked diUb (Lifesensors, catalogue number: DU6303) at 50 or 100 nM. Cleaved diUb was monitored by measuring fluorescence intensity (Ex. 540 nm, Em. 580 nm; dichroic mirror 560 nm). Fluorescence intensity was measured every minute for 30 minutes at 30° C. Fluorescence intensity units for the first 10 minutes were plotted against time to generate a linear reaction progress curve, where the initial velocity (v0) corresponds to the gradient of the curve. IC50 values were calculated using the GraphPad Prism (v8.0) built-in dose-response equation for inhibitor concentration vs. response (variable slope). […]

BRISC Abraxas2 Thr140Ala = BRISC Abraxas2 Thr140Ala (Homo sapiens, UniProt P46736+Q15018+Q9NXR7, T140A); experiment: IQF DUB assay, BRISC mutant Abraxas2 Thr140Ala; assay type: biochemical; details: FIG. 4B
Description: as §1, §2

BRISC Abraxas2 Thr135Lys = BRISC Abraxas2 Thr135Lys (Homo sapiens, UniProt P46736+Q15018+Q9NXR7, T135K); experiment: IQF DUB assay, BRISC mutant Abraxas2 Thr135Lys; assay type: biochemical; details: FIG. 4B
Description: as §1, §2

BRISC BRCC36 Ile158Lys = BRISC BRCC36 Ile158Lys (Homo sapiens, UniProt P46736+Q15018+Q9NXR7, I158K); experiment: Mass photometry, BRISC mutant BRCC36 Ile158Lys; assay type: binding; details: BRCC36 Ile158Lys (inactive mutant)
Description: (§3) Microscope coverslips were prepared as previously described^33. All mass photometry experiments were performed using a One^MP mass photometer (Refeyn Ltd, Oxford, UK). For preliminary BRISC-inhibitor measurements, 1 μM BRISC(FL) was mixed with either DMSO or inhibitor at 330 μM and incubated for 15 minutes on ice. Prior to MP measurement, the BRISC-inhibitor mix was diluted in gel filtration buffer (25 mM HEPES, 150 mM NaCl, 1 mM TCEP) for a final concentration of BRISC at 10 nM (0.05% DMSO). 12 μL of this dilution was used for the final MP measurement, following autofocus stabilisation. […] Movies were recorded for 60 seconds using AcquireMP (Refeyn, UK), and were processed using DiscoverMP (Refeyn, UK). […] The relative amount of each species is calculated as the area of each Gaussian, where a refers to the standard deviation of the fitted Gaussian. […] Curves were fitted and EC50 values were calculated using the GraphPad Prism (v8.0) built-in dose-response equation for concentration of agonist vs. response (variable slope).
(§4) The cryo-EM structures of BRISC bound to molecular glues allowed picking of selective mutations to probe the BRISC-compound interaction site and to assess the contribution of each interacting residue for inhibition and gluing activity. […] For the remaining active 13 mutants (FIGS. 11C, 11D) inhibitor IC50s were calculated against BRISC DUB activity. […]

BRISC BRCC36 Thr128Pro = BRISC BRCC36 Thr128Pro (Homo sapiens, UniProt P46736+Q15018+Q9NXR7, T128P); experiment: Mass photometry, BRISC mutant BRCC36 Thr128Pro; assay type: binding; details: BRCC36 Thr128Pro (inactive mutant)
Description: as §3, §4

inhibitor sensitivity of mutant (BRISC BRCC36 Arg167Ala): remained inhibitor sensitive
IC50 higher than BRISC WT (BRISC Abraxas2 Thr140Ala): 10 fold
inhibitor sensitivity of mutant (BRISC Abraxas2 Thr135Lys): no effect on inhibitor sensitivity
inhibitor-induced dimerisation (BRISC BRCC36 Thr128Pro): still formed a dimer
SMILES: O=C(NC1C2CNCC21)c1nn(C(=O)c2c(Cl)cccc2Cl)cc1NC(=O)c1c(Cl)cccc1Cl (stereo not drawn) [FX-171-C]
BRISC species by native mass spectrometry (BRISC(FL)): BRISC dimers with a MW consistent with a 4:4:4:4 stoichiometry were observed
inhibitor-induced dimerisation (BRISC BRCC36 Ile158Lys): reduction in the inhibitor-induced dimerisation effect
